Measured values taken from the supplement of paper PMC11061612.

Tests used:
Assay in all cases: Bliss excess, mean over the matrix (fraction); higher = more synergy
EW-7 (Ewing's Sarcoma) = test system: EW-7 (Ewing's Sarcoma)
Summary of the method: (§1)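 Bliss excess equals the observed combination effect minus the expected value EA + EB − EA·EB, where EA and EB are the effects of each agent alone. Combination Emax is the second-highest inhibition within the matrix. Inhibition was scaled from CellTiter-Glo 2.0 luminescence, with 0 set by vehicle wells and 1 by blank wells, after 72 hours of two-drug dosing of cells plated in 1536-well plates.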

[1] = test system: EPLC-272H (Other Solid Carcinomas)
Summary of the method: as §1

RH-41 (Rhabdomyosarcoma) = test system: RH-41 (Rhabdomyosarcoma)
Summary of the method: as §1

[2] = test system: HCC1428 (Breast Carcinoma)
Summary of the method: as §1

HCC70 (Breast Carcinoma) = test system: HCC70 (Breast Carcinoma)
Summary of the method: as §1

[3] = test system: MDA-MB-436 (Breast Carcinoma)
Summary of the method: as §1

[4] = test system: HT55 (Colorectal Carcinoma)
Summary of the method: as §1

[5] = test system: CGTH-W-1 (Thyroid Gland Carcinoma)
Summary of the method: as §1

[6] = test system: NCI-H2087 (Lung Adenocarcinoma)
Summary of the method: as §1

EW-16 (Ewing's Sarcoma) = test system: EW-16 (Ewing's Sarcoma)
Summary of the method: as §1

AU565 (Breast Carcinoma) = test system: AU565 (Breast Carcinoma)
Summary of the method: as §1

[7] = test system: DMS-53 (Small Cell Lung Carcinoma)
Summary of the method: as §1

WM1552C (Melanoma) = test system: WM1552C (Melanoma)
Summary of the method: as §1

[8] = test system: G-402 (Other Solid Carcinomas)
Summary of the method: as §1

[9] = test system: LU-165 (Small Cell Lung Carcinoma)
Summary of the method: as §1

[10] = test system: huH-1 (Hepatocellular Carcinoma)
Summary of the method: as §1

[11] = test system: JIMT-1 (Breast Carcinoma)
Summary of the method: as §1

[12] = test system: 22RV1 (Prostate Carcinoma)
Summary of the method: as §1

[13] = test system: HCC1395 (Breast Carcinoma)
Summary of the method: as §1

[14] = test system: CAL-27 (Oral Cavity Carcinoma)
Summary of the method: as §1

Row | Compound | Bliss excess (EW-7 (Ewing's Sarcoma)) | Bliss excess [1] | Bliss excess (RH-41 (Rhabdomyosarcoma)) | Bliss excess [2] | Bliss excess (HCC70 (Breast Carcinoma)) | Bliss excess [3] | Bliss excess [4] | Bliss excess [5] | Bliss excess [6] | Bliss excess (EW-16 (Ewing's Sarcoma)) | Bliss excess (AU565 (Breast Carcinoma)) | Bliss excess [7] | Bliss excess (WM1552C (Melanoma)) | Bliss excess [8] | Bliss excess [9] | Bliss excess [10] | Bliss excess [11] | Bliss excess [12] | Bliss excess [13] | Bliss excess [14]
1 | Cc1c2c(nn1C)CSCc1cc(n(C)n1)CSc1cc(c3ccccc3c1)OCCCc1c(C(=O)O)n(C)c3c-2c(Cl)ccc13 [AZD5991] + Cn1cnc2c(F)c(Nc3ccc(Br)cc3Cl)c(C(=O)NOCCO)cc21 [Selumetinib] (first compound max 1 µM, 7x7, partner max 3 µM) | 0.0096 | 0.0197 | -0.0293 | -0.0185 | 0.099 | -0.0127 | 0.043 | -0.0152 | 0.0282 | 0.046 | 0.0145 | 0.0572 | -0.089 | -0.0416 | -0.0335 | -0.0382 | -0.014 | 0.0253 | 0.0152 | 0.0086
2 | C[C@@H]1COCCN1c1cc(C2([S@](C)(=N)=O)CC2)nc(-c2ccnc3[nH]ccc23)n1 [AZD6738] + O=C(c1cc(Cc2n[nH]c(=O)c3ccccc23)ccc1F)N1CCN(C(=O)C2CC2)CC1 [Olaparib] (first compound max 10 µM, 7x7, partner max 10 µM) | -0.0896 | -0.0682 | -0.0201 | -0.003 | 0.0085 | -0.0176 | 0.0204 | 0.0176 | -0.0008 | 0.0402 | 0.005 | -0.002 | 0.0105 | 0.0068 | -0.0714 | -0.0162 | -0.0247 | 0.0117 | 0.0255 | 0.12
3 | NC1(C(=O)N[C@@H](CCO)c2ccc(Cl)cc2)CCN(c2ncnc3[nH]ccc23)CC1 [Capivasertib] + CC(=O)c1c(C)c2cnc(Nc3ccc(N4CCNCC4)cn3)nc2n(C2CCCC2)c1=O [Palbociclib] (first compound max 10 µM, 7x7, partner max 10 µM) | 0.01 | -0.0065 | -0.047 | -0.0201 | 0.0198 | -0.0267 | -0.0186 | 0.0111 | -0.03 | 0.0029 | 0.0521 | 0.0477 | 0.0025 | -0.0357 | -0.0886 | -0.0462 | -0.0115 | 0.0306 | 0.0116 | -0.0242
4 | NC1(C(=O)N[C@@H](CCO)c2ccc(Cl)cc2)CCN(c2ncnc3[nH]ccc23)CC1 [Capivasertib] + CC(C)n1c(=O)n(C)c2cnc3cc(F)c(-c4ccc(OCCCN5CCCCC5)nc4)cc3c21 [AZD1390] (first compound max 10 µM, 7x7, partner max 0.3 µM) | -0.0311 | -0.13 | -0.0364 | -0.0538 | -0.023 | -0.0625 | -0.0432 | -0.0273 | -0.0378 | -0.079 | -0.025 | 0.0083 | -0.0474 | -0.0731 | -0.0456 | -0.0802 | -0.0118 | -0.0886 | 0.0154 | -0.0886
5 | NC1(C(=O)N[C@@H](CCO)c2ccc(Cl)cc2)CCN(c2ncnc3[nH]ccc23)CC1 [Capivasertib] + CCN(CCO)CCCOc1ccc2c(Nc3cc(CC(=O)Nc4cccc(F)c4)[nH]n3)ncnc2c1 [AZD2811] (first compound max 10 µM, 7x7, partner max 1 µM) | 0.0251 | 0.0027 | 0.0097 | 0.0066 | -0.0506 | -0.0424 | -0.0412 | 0.0234 | -0.0243 | -0.014 | -0.0229 | 0.0225 | -0.0378 | -0.0502 | -0.0323 | -0.0695 | 0.0154 | -0.0373 | 0.001 | -0.0783
6 | NC1(C(=O)N[C@@H](CCO)c2ccc(Cl)cc2)CCN(c2ncnc3[nH]ccc23)CC1 [Capivasertib] + COc1nnc2ccc(N3CCC(c4ccc(OCCN5CCN(C)C(=O)[C@H]5C)cc4)CC3)nn12 [AZD5153] (first compound max 10 µM, 7x7, partner max 1 µM) | -0.0004 | -0.0025 | 0.0198 | -0.0596 | 0.0422 | -0.0555 | -0.0408 | 0.0068 | 0.0179 | 0.0283 | 0.0693 | -0.0195 | -0.0366 | -0.02 | -0.0351 | 0.0064 | 0.0698 | 0.0032 | -0.0381 | -0.0366
7 | NC1(C(=O)N[C@@H](CCO)c2ccc(Cl)cc2)CCN(c2ncnc3[nH]ccc23)CC1 [Capivasertib] + C[C@@H]1COCCN1C2=NC(=NC(=C2)C3(CC3)[S@](=N)(=O)C)C4=C5C=CNC5=NC=C4 [AZD6738] (first compound max 10 µM, 7x7, partner max 10 µM) | 0.0021 | -0.0353 | -0.0389 | -0.0066 | -0.0586 | -0.0473 | -0.0531 | -0.0508 | -0.0071 | 0.0116 | -0.0126 | -0.0279 | -0.062 | -0.017 | -0.01 | -0.0533 | -0.0321 | -0.0527 | -0.0687 | -0.0792
8 | NC1(C(=O)N[C@@H](CCO)c2ccc(Cl)cc2)CCN(c2ncnc3[nH]ccc23)CC1 [Capivasertib] + Cn1cnc2c(F)c(Nc3ccc(Br)cc3Cl)c(C(=O)NOCCO)cc21 [Selumetinib] (first compound max 10 µM, 7x7, partner max 10 µM) | 0.0429 | 0.128 | 0.0251 | 0.0149 | 0.18 | 0.0258 | -0.0042 | 0.0262 | 0.016 | 0.0097 | 0.0183 | 0.0155 | 0.036 | 0.0126 | -0.0404 | -0.0199 | 0.0449 | -0.0044 | 0.033 | 0.0108
9 | COc1cccc2c1C(=O)c1c(O)c3c(c(O)c1C2=O)C[C@@](O)(C(=O)CO)C[C@@H]3O[C@H]1C[C@H](N)[C@H](O)[C@H](C)O1 [Doxorubicin] + Cc1cc2ncnn2cc1Nc1ncc2c(n1)n(C1CCOCC1)c(=O)n2C [AZD7648] (first compound max 1 µM, 7x7, partner max 10 µM) | 0.0058 | 0.0568 | 0.116 | -0.0499 | 0.0344 | 0.0122 | 0.0622 | 0.0333 | 0.0107 | 0.0933 | 0.0753 | 0.0197 | 0.0398 | 0.0446 | -0.0534 | 0.102 | 0.0514 | -0.0351 | -0.0234 | 0.0853
10 | CS(=O)(=O)CCNCc1ccc(-c2ccc3ncnc(Nc4ccc(OCc5cccc(F)c5)c(Cl)c4)c3c2)o1 [Lapatinib] + C[C@@H](Oc1cc(-c2cnn(C3CCNCC3)c2)cnc1N)c1c(Cl)ccc(F)c1Cl [Crizotinib] (first compound max 10 µM, 7x7, partner max 10 µM) | -0.0465 | 0.0191 | -0.0054 | -0.043 | -0.0208 | -0.0237 | -0.0412 | -0.0294 | -0.0499 | -0.0562 | -0.0287 | -0.0205 | -0.0534 | -0.0517 | -0.0858 | -0.0577 | 0.0444 | -0.108 | -0.0724 | -0.0589
11 | CC(=O)c1c(C)c2cnc(Nc3ccc(N4CCNCC4)cn3)nc2n(C2CCCC2)c1=O [Palbociclib] + CC1(C)CCC(CN2CCN(c3ccc(C(=O)NS(=O)(=O)c4ccc(NCC5CCOCC5)c([N+](=O)[O-])c4)c(Oc4cnc5[nH]ccc5c4)c3)CC2)=C(c2ccc(Cl)cc2)C1 [Venetoclax] (first compound max 10 µM, 7x7, partner max 1 µM) | 0.0071 | -0.0106 | -0.0019 | -0.0378 | -0.0356 | -0.0345 | 0.0107 | -0.0219 | -0.0596 | 0.0564 | 0.0161 | 0.0325 | -0.0334 | 0.0369 | -0.0502 | -0.0529 | -0.0448 | -0.0571 | -0.0472 | -0.0483
12 | CC(=O)c1c(C)c2cnc(Nc3ccc(N4CCNCC4)cn3)nc2n(C2CCCC2)c1=O [Palbociclib] + Cc1c2c(nn1C)CSCc1cc(n(C)n1)CSc1cc(c3ccccc3c1)OCCCc1c(C(=O)O)n(C)c3c-2c(Cl)ccc13 [AZD5991] (first compound max 10 µM, 7x7, partner max 1 µM) | -0.0005 | -0.0979 | -0.0028 | -0.033 | -0.0171 | -0.0243 | 0.0046 | -0.0037 | -0.0561 | -0.0356 | -0.0211 | 0.044 | -0.0565 | 0.0106 | -0.0347 | -0.0422 | -0.0348 | -0.0781 | -0.0403 | -0.0869
